Measured values as given in patent US20070117743A1, “New antitumoral compounds” (priority 2003, published 2007).
Where a SMILES comes first, the peptide text is derived from it. Bridges are numbered along the chain shown (N, C = ends). [ ]: non-standard residue; d: D form. The star is where a group is joined. d(aIle) = CC[C@H](C)[C@@H](N)C(=O)O; d(aThr) = C[C@@H](O)[C@@H](N)C(=O)O; Hexanoyl(5-Me) = CC(C)CCCC(=O)*; Orn = NCCC[C@H](N)C(=O)O; Dhb = C/C=C(\N)C(=O)O; Dha = C=C(N)C(=O)O

What was measured:
Format in all cases: cell-based, human
[1] = test system: DU-145; assay: SRB colorimetric assay of cell growth and viability, DU-145; conditions: 48 hours exposure, SRB
[2] = test system: SK-BR-3; assay: SRB colorimetric assay of cell growth and viability, SK-BR-3; conditions: 48 hours exposure, SRB
[3] = test system: LNCaP; assay: SRB colorimetric assay of cell growth and viability, LNCaP; conditions: 48 hours exposure, SRB; for GI50: read-out: GI50 LN-caP; for CC50: read-out: LC50 LN-caP
[4] = test system: SK-MEL-28; assay: SRB colorimetric assay of cell growth and viability, SK-MEL-28; conditions: 48 hours exposure, SRB; for CC50: read-out: LC50 MEL-28
[5] = test system: LoVo-Dox; assay: SRB colorimetric assay of cell growth and viability, LoVo-Dox; conditions: 48 hours exposure, SRB; for CC50: read-out: LC50 LOVO-DOX
How it was run: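 Human tumor cells seeded at 5×10^3/well in RPMI 1640 10% FBS, attached 18 hours, then exposed 48 hours to compound (10 to 10^−8 μg/mL). TCA-fixed, SRB-stained, OD 490 nm; triplicates give GI, TGI and LC values.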

[6] = test system: IGROV-ET; assay: SRB colorimetric assay of cell growth and viability, IGROV-ET; conditions: 48 hours exposure, SRB; for CC50: read-out: LC50 IGROV-ET
[7] = test system: HeLa; assay: SRB colorimetric assay of cell growth and viability, HeLa; conditions: 48 hours exposure, SRB; for CC50: read-out: LC50 HELA
[8] = test system: A-549; assay: SRB colorimetric assay of cell growth and viability, A-549; conditions: 48 hours exposure, SRB; for GI50: read-out: GI50 A-549; for CC50: read-out: LC50 A-549
[9] = test system: HT-29; assay: SRB colorimetric assay of cell growth and viability, HT-29; conditions: 48 hours exposure, SRB; for GI50: read-out: GI50 HT-29; for CC50: read-out: LC50 HT-29
[10] = test system: LoVo; assay: SRB colorimetric assay of cell growth and viability, LoVo; conditions: 48 hours exposure, SRB; for CC50: read-out: LC50 LOVO
[11] = test system: IGROV-1; assay: SRB colorimetric assay of cell growth and viability, IGROV-1; conditions: 48 hours exposure, SRB
[12] = test system: HeLa-APL; assay: SRB colorimetric assay of cell growth and viability, HeLa-APL; conditions: 48 hours exposure, SRB; for CC50: read-out: LC50 HELA-APL
[13] = test system: K-562; assay: SRB colorimetric assay of cell growth and viability, K-562; conditions: 48 hours exposure, SRB; for CC50: read-out: LC50 K-562
[14] = test system: PANC-1; assay: SRB colorimetric assay of cell growth and viability, PANC-1; conditions: 48 hours exposure, SRB; for CC50: read-out: LC50 PANC-1

C=C1NC(=O)[C@H](Cc2ccccc2)NC(=O)[C@@H](C(C)C)NC(=O)[C@@H]([C@@H](C)CC)NC(=O)[C@H](NC(=O)[C@H](NC(=O)[C@H](CCCN)NC(=O)[C@H]2CCCN2C(=O)[C@H](NC(=O)[C@@H](NC(=O)[C@@H](NC(=O)[C@H](NC(=O)CCCC(C)C)C(C)C)[C@@H](C)O)C(C)C)C(C)C)[C@@H](C)CC)[C@@H](C)OC(=O)[C@H](C(C)C)NC1=O [Compound 67, [Dha^2]-KF] ({Hexanoyl(5-Me)}-[dV]TV[dV][dP][Orn][d(aIle)][d(aThr)][d(aIle)][dV]F[Dha]V; ester 8-C)
GI50 [1]: 0.915 µM | LC50 (concentration causing 50% net cell kill) [1]: 3.4 µM | TGI DU-145 [1]: 1.77E−06 Molar | GI50 [2]: 0.32 µM | LC50 [2]: 2.21 µM | TGI SK-BR-3 [2]: 5.56E−07 Molar | TGI LN-caP [3]: 4.60E−06 Molar | GI50 [3]: 1.83 µM | CC50 [3]: ≥ 6.83 µM | GI50 [4]: 1.13 µM | TGI MEL-28 [4]: 2.25E−06 Molar | CC50 [4]: 4.51 µM | GI50 [5]: 0.264 µM | TGI LOVO-DOX [5]: 5.61E−06 Molar | CC50 [5]: 2.47 µM | GI50 [6]: 0.39 µM | TGI IGROV-ET [6]: 1.33E−06 Molar | CC50 [6]: 4.53 µM | GI50 [7]: 1.15 µM | TGI HELA [7]: 2.15E−06 Molar | CC50 [7]: 4 µM | TGI A-549 [8]: 2.70E−06 Molar | GI50 [8]: 1.44 µM | CC50 [8]: 5.06 µM | TGI HT-29 [9]: 9.63E−07 Molar | GI50 [9]: 0.347 µM | CC50 [9]: 4.17 µM | GI50 [10]: 0.173 µM | TGI LOVO [10]: 3.40E−07 Molar | CC50 [10]: 0.669 µM | GI50 [11]: 0.553 µM | LC50 (concentration causing 50% net cell killing) [11]: 4.59 µM | TGI IGROV [11]: 1.58E−06 Molar | GI50 [12]: 1.09 µM | TGI HELA-APL [12]: 2.03E−06 Molar | CC50 [12]: 3.75 µM | GI50 [13]: 2.92 µM | TGI K-562 [13]: 6.83E−06 Molar | CC50 [13]: ≥ 6.83 µM | GI50 [14]: ≥ 6.83 µM | TGI PANC-1 [14]: 6.83E−06 Molar | CC50 [14]: ≥ 6.83 µM

C/C=C1\NC(=O)[C@H](Cc2c[nH]c3ccccc23)NC(=O)[C@@H](C(C)C)NC(=O)[C@@H]([C@@H](C)CC)NC(=O)[C@H](NC(=O)[C@H](NC(=O)[C@H](CCCN)NC(=O)[C@H]2CCCN2C(=O)[C@H](NC(=O)[C@@H](NC(=O)[C@@H](NC(=O)[C@H](NC(=O)CCCC(C)C)C(C)C)[C@@H](C)O)C(C)C)C(C)C)[C@@H](C)CC)[C@@H](C)OC(=O)[C@H](C(C)C)NC1=O [Compound 68, [Trp^3]-KF] ({Hexanoyl(5-Me)}-[dV]TV[dV][dP][Orn][d(aIle)][d(aThr)][d(aIle)][dV]W[Dhb]V; ester 8-C)
GI50 [1]: 0.47 µM | LC50 (concentration causing 50% net cell kill) [1]: 2.85 µM | TGI DU-145 [1]: 1.21E−06 Molar | GI50 [2]: 0.15 µM | LC50 [2]: 0.655 µM | TGI SK-BR-3 [2]: 3.13E−07 Molar | TGI LN-caP [3]: 2.36E−06 Molar | GI50 [3]: 1.05 µM | CC50 [3]: 5.29 µM | GI50 [4]: 1.25 µM | TGI MEL-28 [4]: 2.17E−06 Molar | CC50 [4]: 3.77 µM | GI50 [5]: 0.281 µM | TGI LOVO-DOX [5]: 6.47E−07 Molar | CC50 [5]: 2.53 µM | GI50 [6]: 0.15 µM | TGI IGROV-ET [6]: 2.73E−07 Molar | CC50 [6]: 0.499 µM | GI50 [7]: 1.03 µM | TGI HELA [7]: 2.05E−06 Molar | CC50 [7]: 4.04 µM | TGI A-549 [8]: 2.83E−06 Molar | GI50 [8]: 1.56 µM | CC50 [8]: 5.12 µM | TGI HT-29 [9]: 1.40E−06 Molar | GI50 [9]: 0.512 µM | CC50 [9]: 3.66 µM | GI50 [10]: 0.337 µM | TGI LOVO [10]: 9.49E−07 Molar | CC50 [10]: 2.62 µM | GI50 [11]: 0.087 µM | LC50 (concentration causing 50% net cell killing) [11]: 0.453 µM | TGI IGROV [11]: 1.98E−07 Molar | GI50 [12]: 0.943 µM | TGI HELA-APL [12]: 1.90E−06 Molar | CC50 [12]: 3.82 µM | GI50 [13]: 3.7 µM | TGI K-562 [13]: 6.59E−06 Molar | CC50 [13]: 6.59 µM | GI50 [14]: 6.59 µM | TGI PANC-1 [14]: 6.59E−06 Molar | CC50 [14]: 6.59 µM
